Assay results from ChEMBL document CHEMBL1142701, “CHMIS-C: a comprehensive herbal medicine information system for cancer” (2005).

What follows are compounds tested on Panel NCI-60 (60 carcinoma cell lines) (assay: Growth inhibitory activity against human cancer cell line in the NCI's anticancer drug screening program).
Type: functional
For `COC(=O)CC(O)(CCC(C)(C)O)C(=O)OC1C(OC)=CC23CCCN2CCc2cc4c(cc2C13)OCO4` (stereo not given), the GI50 was 10 nM. Compound `C[C@H]1[C@H](C)CC[C@]2(C(=O)O)CC[C@]3(C)C(=CCC4[C@@]5(C)CC[C@H](O)C(C)(C)C5CC[C@]43C)[C@H]12` (stereo not given in full) has a GI50 of 10 nM. `C[C@]12CC[C@H]3[C@@H](CC[C@@]4(O)C[C@@H](O)CC[C@]34C=O)[C@]1(O)CC[C@@H]2C1=CC(=O)OC1` was tested, and the GI50 was 94 nM. `CC(=O)OC(C)(C)/C=C/C(=O)C(C)(O)C1C(O)CC2(C)C3CC=C4C(C[C@@H](O)C(=O)C4(C)C)C3(C)C(=O)CC12C` (stereo not given in full) [AMARIN] gave a GI50 of 10 nM. With `O=c1cc(-c2ccc(O)cc2)oc2cc(O[C@@H]3O[C@H](CO)[C@@H](O)[C@H](O)[C@H]3O)cc(O)c12` [APIGETRIN] the GI50 was 76 nM. For `COc1cccc2c1cc([N+](=O)[O-])c1c(C(=O)O)cc3c(c12)OCO3` [ARISTOLOCHIC ACID], the GI50 was 883 nM. `CC[C@@]1(O)C(=O)OCc2c1cc1n(c2=O)Cc2cc3ccccc3nc2-1` [CAMPTOTHECIN] was tested, and the GI50 was 10 nM. Compound `COc1ccc2c(c[n+](C)c3c4cc5c(cc4ccc23)OCO5)c1OC` [CHELERYTHRINE CHLORIDE] has a GI50 of 188 nM. Compound `CN1Cc2c(ccc3c2OCO3)C2C(O)Cc3cc4c(cc3C21)OCO4` (stereo not drawn) [CHELIDONINE (+)] has a GI50 of 433 nM. `COc1cc2c(c(OC)c1OC)-c1ccc(OC)c(=O)cc1[C@@H](NC(C)=O)CC2` [COLCHICINE] was tested, and the GI50 was 1.7 nM. For `c1c2c(cc3c1OCO3)-c1cc3ccc4c(c3c[n+]1CC2)OCO4` [COPTISINE], the GI50 was 260 nM. Work on `COc1c2cc3c(c1OC)CCN(C)[C@@H]3Cc1ccc(cc1)Oc1cc3c(c(OC)c1OC)CCN(C)[C@@H]3Cc1ccc(cc1)O2` [CYCLEANINE] yielded a GI50 of 17 nM. Work on `CO[C@H]1C[C@H](O[C@H]2CC[C@]3(C=O)[C@H]4CC[C@]5(C)[C@@H](C6=CC(=O)OC6)CC[C@]5(O)[C@@H]4CC[C@]3(O)C2)O[C@H](C)[C@H]1O` [CYMARIN] yielded a GI50 of 39 nM. `C=C(CC[C@@H](C(=O)O)[C@H]1CC[C@@]2(C)C3=C(CC[C@]12C)[C@@]1(C)CC[C@H](O)C(C)(C)[C@@H]1CC3)C(C)C` [EBURICOIC ACID] gave a GI50 of 10000 nM. With `CC(C)(O)/C=C/C(=O)[C@](C)(O)[C@@H]1C2CC(=O)[C@@]3(C)[C@@H]4C[C@H](O)C(=O)C(C)(C)C4=CC[C@H]3[C@]2(C)C[C@H]1O` (stereo not given in full) [ELATERICIN] the GI50 was 23 nM. Compound `O=c1oc2c(O)c(O)cc3c(=O)oc4c(O)c(O)cc1c4c23` [ELLAGIC ACID] has a GI50 of 10 nM. Work on `Cc1cc(O)c2c(c1)C(=O)c1cc(O)cc(O)c1C2=O` [EMODIN] yielded a GI50 of 10000 nM. `COc1ccc2cc1Oc1ccc(cc1)C[C@H]1c3cc(c(OC)cc3CCN1C)Oc1c(OC)c(OC)cc3c1[C@H](C2)N(C)CC3` [FANCHININ] was tested, and the GI50 was 10 nM. Work on `COc1ccc2cc1Oc1ccc(cc1)C[C@@H]1c3cc(c(OC)cc3CCN1C)Oc1c(OC)c(OC)cc3c1[C@H](C2)N(C)CC3` [ISOTETRANDRINE] yielded a GI50 of 10 nM. In the case of `COc1ccc2c(c1O)-c1c(OC)c(OC)cc3c1C(C2)[N+](C)(C)CC3` (stereo not given) [MENISPERINE], the GI50 is reported as 41 nM. `CC(C)c1oc(=O)cc2c1C(O)C1OC(=O)C3(C)C(O)C4OC4C2(C)C13` (stereo not given) [NAGILACTONE] was tested, and the GI50 was 363 nM. In the case of `O=C1N[C@@H]2C(=C[C@H](O)[C@@H](O)[C@H]2O)c2cc3c(c(O)c21)OCO3` [NARCICLASINE], the GI50 is reported as 45 nM. With `COc1cc2c[n+](C)c3c4cc5c(cc4ccc3c2cc1OC)OCO5` [NITIDINE CHLORIDE] the GI50 was 125 nM. Compound `COC(=O)C(O)C(O)(CCC(C)C)C(=O)OC1C(OC)=CC23CCCN2CCc2cc4c(cc2C13)OCO4` (stereo not given) [OHARRINGTONINE] has a GI50 of 10 nM. `CCCCCCCC/C=C\CCCCCCCC(=O)O` [OLEIC ACID] gave a GI50 of 10000 nM. `COC(=O)C[C@](O)(CCCC(C)(C)O)C(=O)O[C@@H]1C(OC)=C[C@]23CCCN2CCc2cc4c(cc2[C@H]13)OCO4` [OMACETAXINE MEPESUCCINATE] gave a GI50 of 4.4 nM. In the case of `C=C1C(=O)[C@]23[C@H](O)[C@H]1CC[C@H]2[C@@]12CO[C@]3(O)[C@@H](O)[C@@H]1C(C)(C)CC[C@@H]2O` [ORIDONIN], the GI50 is reported as 453 nM. For `CC(=O)O[C@H]1C(=O)[C@@]2(C)[C@H]([C@H](OC(=O)c3ccccc3)[C@]3(O)C[C@H](OC(=O)[C@H](O)[C@@H](NC(=O)c4ccccc4)c4ccccc4)C(C)=C1C3(C)C)[C@]1(OC(C)=O)CO[C@@H]1C[C@@H]2O` [PACLITAXEL], the GI50 was 0.1 nM. Compound `COc1cc([C@@H]2c3cc4c(cc3[C@H](O)[C@H]3COC(=O)[C@H]23)OCO4)cc(OC)c1OC` [PODOFILOX] has a GI50 of 10 nM. `CC(C=CC=C(C)/C=C/C1=C(C)CCCC1(C)C)=CCO` [RETINOL] was tested, and the GI50 was 28 nM.
